Laboratory results published in patent US7560466B2, “Methods of treating or preventing autoimmune diseases with 2,4-pyrimidinediamine compounds” (Rigel Pharmaceuticals, Inc., priority 2003, dated 2009).
Like-named read-outs stand apart in the source and are kept apart here.

Test system: cultured human mast cells (CHMC), IgE-induced degranulation
Assay: CHMC low cell density IgE activation: tryptase assay
Assay type: cell-based
Conditions: low cell density CHMC
Method in brief: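 Tryptase release read fluorogenically (30 min, room temperature) from supernatants of anti-IgE-challenged cultured human mucosal mast cells derived from umbilical cord CD34+ cells, at low density of 1000–1500 cells/well.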

[1] = 8-point, read-out: LD Tryptase, CHMC, IgE, 8pt
[2] = 3-point, read-out: LD Tryptase, CHMC, IgE, 3pt

SMILES | IC50 [1] | IC50 [2]
CC1(C)Oc2ccc(Nc3nc(Nc4ccc(-c5ncco5)cc4)ncc3F)nc2NC1=O [Compound 1035, N4-(2,2-Dimethyl-3-oxo-4H-5-pyrid[1,4]oxazin-6-yl)-5-fluoro-N2-[4-(oxazol-2-yl)phenyl]-2,4-pyrimidinediamine] | > 10 µM | –
COc1cccc(Nc2ncc(F)c(Nc3ccc4c(n3)NC(=O)C(C)(C)O4)n2)c1C [Compound 1065, N4-(2,2-Dimethyl-3-oxo-4H-5-pyrid[1,4]oxazin-6-yl)-5-fluoro-N2-(3-methoxy-2-methylphenyl)-2,4-pyrimidinediamine] | – | < 10 µM
COC(=O)COc1cccc(Nc2ncc(F)c(Nc3ccc4c(c3)NC(=O)C(C)(C)O4)n2)c1C [Compound 1066, N4-(2,2-Dimethyl-3-oxo-4H-benz[1,4]oxazin-6-yl)-5-fluoro-N2-[3-methoxycarbonylmethyleneoxy-2-methylphenyl]-2,4-pyrimidinediamine] | – | < 10 µM
CC(=O)N1CCN(c2cccc(Nc3ncc(F)c(Nc4ccc5c(n4)NC(=O)C(C)(C)O5)n3)c2)CC1 [Compound 1076, N2-[3-(4-Acetylpiperazino)phenyl]-N4-(2,2-dimethyl-3-oxo-4H-5-pyrid[1,4]oxazin-6-yl)-5-fluoro-2,4-pyrimidinediamine] | < 10 µM | –
CCOC(=O)N1CCN(c2ccc(Nc3ncc(F)c(Nc4ccc5c(n4)NC(=O)C(C)(C)O5)n3)cc2)CC1 [Compound 1077, N4-(2,2-Dimethyl-3-oxo-4H-5-pyrid [1,4]oxazin-6-yl)-N2-[4-(4-ethoxycarbonylpiperazino)phenyl]-5-fluoro-2,4-pyrimidinediamine] | < 10 µM | –
CC1(C)Oc2ccc(Nc3nc(Nc4cccc(N5CCOCC5)c4)ncc3F)nc2NC1=O [Compound 1078, N4-(2,2-Dimethyl-3-oxo-4H-5-pyrid[1,4]oxazin-6-yl)-5-fluoro-N2-(3-morpholinophenyl)-2,4-pyrimidinediamine] | < 10 µM | –
CNC(=O)COc1cccc(Nc2ncc(F)c(Nc3ccc4c(n3)NC(=O)C(C)(C)O4)n2)c1C [Compound 1079, N4-(2,2-Dimethyl-3-oxo-4H-5-pyrid [1,4]oxazin-6-yl)-5-fluoro-N2-[2-methyl-3-(N-methylamino)carbonylmethyleneoxyphenyl]-2,4-pyrimidinediamine] | < 10 µM | –
CN1CCN(c2cccc(Nc3ncc(F)c(Nc4ccc5c(n4)NC(=O)C(C)(C)O5)n3)c2)CC1 [Compound 1080, N4-(2,2-Dimethyl-3-oxo-4H-5-pyrid [1,4]oxazin-6-yl)-5-fluoro-N2-[3-(4-methylpiperazino)phenyl]-2,4-pyrimidinediamine] | < 10 µM | –
COc1ccc(Nc2ncc(F)c(Nc3ccc4c(n3)NC(=O)[C@H](C)O4)n2)cc1Cl [Compound 1081, (S)—N2-(3-Chloro-4-methoxyphenyl)-5-fluoro-N4-(2-methyl-3-oxo-2H,4H-5-pyrid[1,4]oxazin-6-yl)-2,4-pyrimidinediamine] | < 10 µM | < 10 µM
COc1cc(Nc2ncc(F)c(Nc3ccc4c(n3)NC(=O)[C@H](C)O4)n2)cc(OC)c1OC [Compound 1082, (S)-5-Fluoro-N4-(2-methyl-3-oxo-2H,4H-5-pyrid[1,4]oxazin-6-yl)-N2-(3,4,5-trimethoxyphenyl)-2,4-pyrimidinediamine] | < 10 µM | < 10 µM

Next, values leading:

IC50 [1] | IC50 [2] | SMILES
< 10 µM | – | COc1c(C)cc(Nc2ncc(F)c(Nc3ccc4c(n3)NC(=O)CO4)n2)cc1C [Compound 1059, N2-(3,5-Dimethyl-4-methoxyphenyl)-5-fluoro-N4-(3-oxo-2H,4H-5-pyrid[1,4]oxazin-6-yl)-2,4-pyrimidinediamine]
< 10 µM | – | COc1cccc(Nc2ncc(F)c(Nc3ccc4c(n3)NC(=O)CO4)n2)c1C [Compound 1061, 5-Fluoro-N2-(3-methoxy-2-methylphenyl)-N4-(3-oxo-2H,4H-5-pyrid[1,4]oxazin-6-yl)-2,4-pyrimidinediamine]
< 10 µM | – | Cc1c(O)cccc1Nc1ncc(F)c(Nc2ccc3c(n2)NC(=O)CO3)n1 [Compound 1063, 5-Fluoro-N2-(3-hydroxy-2-methylphenyl)-N4-(3-oxo-2H,4H-5-pyrid[1,4]oxazin-6-yl)-2,4-pyrimidinediamine]
< 10 µM | – | Cc1c(O)cccc1Nc1ncc(F)c(Nc2ccc3c(n2)NC(=O)C(C)(C)O3)n1 [Compound 1064, N4-(2,2-Dimethyl-3-oxo-4H-5-pyrid[1,4]oxazin-6-yl)-5-fluoro-N2-(3-hydroxy-2-methylphenyl)-2,4-pyrimidinediamine]
< 10 µM | – | CNC(=O)COc1cccc(Nc2ncc(F)c(Nc3ccc4c(c3)NC(=O)C(C)(C)O4)n2)c1C [Compound 1067, N4-(2,2-Dimethyl-3-oxo-4H-benz[1,4]oxazin-6-yl)-5-fluoro-N2-[2-methyl-3-(N-methylamino)carbonylmethyleneoxyphenyl]-2,4-pyrimidinediamine]
< 10 µM | – | CNC(=O)COc1cccc(Nc2ncc(F)c(Nc3ccc4c(n3)NC(=O)CO4)n2)c1C [Compound 1068, 5-Fluoro-N2-[2-methyl-3-(N-methylamino)carbonylmethyleneoxyphenyl]-N4-(3-oxo-2H,4H-5-pyrid[1,4]oxazin-6-yl)-2,4-pyrimidinediamine]
< 10 µM | – | Cc1cc(Nc2ncc(F)c(Nc3ccc4c(n3)NC(=O)CO4)n2)cc(C)c1O [Compound 1069, N2-(3,5-Dimethyl-4-hydroxyphenyl)-5-fluoro-N4-(3-oxo-2H,4H-5-pyrid[1,4]oxazin-6-yl)-2,4-pyrimidinediamine]
< 10 µM | – | CCOC(=O)N1CCN(c2cccc(Nc3ncc(F)c(Nc4ccc5c(n4)NC(=O)CO5)n3)c2)CC1 [Compound 1070, N2-[3-(4-Ethoxycarbonylpiperazino)phenyl]-5-fluoro-N4-(3-oxo-2H,4H-5-pyrid[1,4]oxazin-6-yl)-2,4-pyrimidinediamine]
< 10 µM | – | CC(=O)N1CCN(c2cccc(Nc3ncc(F)c(Nc4ccc5c(n4)NC(=O)CO5)n3)c2)CC1 [Compound 1071, N2-[3-(4-Acetylpiperazino)phenyl]-5-fluoro-N4-(3-oxo-2H,4H-5-pyrid[1,4]oxazin-6-yl)-2,4-pyrimidinediamine]
< 10 µM | – | CCOC(=O)N1CCN(c2ccc(Nc3ncc(F)c(Nc4ccc5c(n4)NC(=O)CO5)n3)cc2)CC1 [Compound 1072, N2-[4-(4-Ethoxycarbonylpiperazino)phenyl]-5-fluoro-N4-(3-oxo-2H,4H-5-pyrid[1,4]oxazin-6-yl)-2,4-pyrimidinediamine]
< 10 µM | – | O=C1COc2ccc(Nc3nc(Nc4cccc(N5CCOCC5)c4)ncc3F)nc2N1 [Compound 1073, 5-Fluoro-N2-(3-morpholinophenyl)-N4-(3-oxo-2H,4H-5-pyrid[1,4]oxazin-6-yl)-2,4-pyrimidinediamine]
< 10 µM | – | CN1CCN(c2cccc(Nc3ncc(F)c(Nc4ccc5c(n4)NC(=O)CO5)n3)c2)CC1 [Compound 1074, 5-Fluoro-N2-[3-(4-methylpiperazion)phenyl]-N4-(3-oxo-2H,4H-5-pyrid[1,4]oxazin-6-yl)-2,4-pyrimidinediamine]
< 10 µM | – | CCOC(=O)N1CCN(c2cccc(Nc3ncc(F)c(Nc4ccc5c(n4)NC(=O)C(C)(C)O5)n3)c2)CC1 [Compound 1075, N4-(2,2-Dimethyl-3-oxo-4H-5-pyrid[1,4]oxazin-6-yl)-N2-[3-(4-ethoxycarbonylpiperazino)phenyl]-5-fluoro-2,4-pyrimidinediamine]
